In patent publication US6579881B2 (Eisai Co., Ltd., priority 1997, dated 2003):
pKi: −log10 of the molar value. Structures can show the parent of a compound that is named as a salt.

Legend:
α1 adrenalin receptor = assay: Binding test on [3H] prazosin (α1 adrenalin receptor); set-up: species or system rat; details: [3H] prazosin about 0.2 nM, receptor fraction of rat cerebral cortex
serotonin 1A receptor = molecular target: T1, serotonin 1A receptor (Rattus norvegicus, UniProt P19327); assay: Binding test on [3H] 8-hydroxy-dipropylaminotetralin (serotonin 1A receptor); details: [3H] 8-OH-DPAT 0.5 nM, receptor fraction of rat hippocampus; read-out: 5HT1a
T1 construct: To the receptor fraction of the hippocampus were added a test compound and 0.5 nM of [^3H]; 8-hydroxy-dipropylaminotetralin; from tissue; host or cells: SD rat hippocampus, membrane (receptor) fraction
T1 sequence (P19327 1-422): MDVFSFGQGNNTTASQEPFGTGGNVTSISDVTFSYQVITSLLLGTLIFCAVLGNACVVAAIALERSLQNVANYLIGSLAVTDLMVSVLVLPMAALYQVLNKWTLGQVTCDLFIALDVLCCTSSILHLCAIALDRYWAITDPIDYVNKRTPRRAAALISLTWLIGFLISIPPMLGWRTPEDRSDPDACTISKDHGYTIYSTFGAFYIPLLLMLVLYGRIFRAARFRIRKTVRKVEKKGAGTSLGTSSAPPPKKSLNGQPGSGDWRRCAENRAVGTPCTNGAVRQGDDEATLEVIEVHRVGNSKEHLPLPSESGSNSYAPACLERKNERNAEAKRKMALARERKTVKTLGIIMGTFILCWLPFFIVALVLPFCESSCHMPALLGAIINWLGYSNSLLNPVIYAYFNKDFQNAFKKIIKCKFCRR

serotonin 2 receptor = serotonin 2 receptor (Rattus norvegicus, UniProt P14842); assay: Binding test on [3H] ketanserin (serotonin 2 receptor); details: [3H] ketanserin 0.3 nM, receptor fraction of rat cerebral cortex; read-out: 5HT2
Chain of serotonin 2 receptor (P14842 whole entry): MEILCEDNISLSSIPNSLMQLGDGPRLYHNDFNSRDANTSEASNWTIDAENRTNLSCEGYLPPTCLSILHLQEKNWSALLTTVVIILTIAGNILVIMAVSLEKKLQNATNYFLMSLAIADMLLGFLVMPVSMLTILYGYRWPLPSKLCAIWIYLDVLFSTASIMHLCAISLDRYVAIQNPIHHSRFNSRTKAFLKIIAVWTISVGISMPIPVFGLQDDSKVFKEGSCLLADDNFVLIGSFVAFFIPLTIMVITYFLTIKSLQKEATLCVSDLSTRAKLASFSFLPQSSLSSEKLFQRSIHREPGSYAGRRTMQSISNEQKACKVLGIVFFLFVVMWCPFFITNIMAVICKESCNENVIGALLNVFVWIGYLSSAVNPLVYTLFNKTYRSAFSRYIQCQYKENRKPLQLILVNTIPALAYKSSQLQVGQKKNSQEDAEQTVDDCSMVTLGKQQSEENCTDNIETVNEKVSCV

Compound	pKi (α1 adrenalin receptor)	pKi (serotonin 1A receptor)	pKi (serotonin 2 receptor)
O=C(Cc1ccc2ccn(C3CCN(CCc4ccc(F)cc4)CC3)c2c1)NCc1ccccn1 [Example 341, 1-[1-(4-fluorophenethyl)piperidin-4-yl]-6-(pyridin-2-yl)methylcarbamoylmethylindole Oxalate]	7.32	8.68	9.17
COc1cccc(CCN2CCC(N3CCc4ccccc43)CC2)c1 [Example 19, 1-[1-(3-methoxyphenethyl)piperidin-4-yl]indoline]	7.26	8.06	8.15
Cc1nc2sccn2c(=O)c1CCN1CCC(N2CCc3ccccc32)CC1 [Co. No. 5 given in WO96/23784, 1-{1-[2-(5-oxo-7-methyl-5H-pyrimidino[2,1-b][1,3]thiazol-6-yl)ethyl]piperidin-4-yl}indoline, reference compound]	7.77		
CC(=O)N(C)Cc1ccc2c(c1)N(C1CCN(CCc3ccc(F)cc3)CC1)CC2 [Example 163, 1-[1-(4-fluorophenethyl)piperidin-4-yl]-6-N-methylacetamidomethylindoline]		8.62	8.11
CC(C)Nc1ccc2c(c1)N(C1CCN(CCc3ccc(F)cc3)CC1)CC2 [Example 113, 1-[1-(4-fluorophenethyl)piperidin-4-yl]-6-isopropylaminoindoline]		7.86	< 6.70
CC(=O)Nc1ccc(CCN2CCC(N3CCc4ccccc43)CC2)cc1 [Example 32, 1-[1-(4-acetamidophenethyl)piperidin-4-yl]indoline]		7.52	7.52
c1ccc(CCN2CCC(N3CCc4ccccc43)CC2)nc1 [Example 50, 1-{1-[2-(2-pyridyl)ethyl]piperidin-4-yl}indoline]		7.51	7.28
c1ccc(CCN2CCC(N3CCc4ccccc43)CC2)cc1 [Example 3, 1-(1-phenethylpiperidin-4-yl)indoline]		7.54	7.76
Oc1ccc2c(c1)N(C1CCN(CCc3ccc(F)cc3)CC1)CC2 [Example 104, 1-[1-(4-fluorophenethyl)piperidin-4-yl]-6-hydroxyindoline]		8.62	8.22
Fc1ccc(CCN2CCC(N3CCc4ccc(CC5CCNCC5)cc43)CC2)cc1 [Example 167, 1-[1-(4-fluorophenethyl)piperidin-4-yl]-6-[(piperidin-4-yl)methyl]indoline]		8.19	7.73
COc1cccc2c1N(C1CCN(CCc3ccc(F)cc3)CC1)CC2 [Example 107, 1-[1-(4-fluorophenethyl)piperidin-4-yl]-7-methoxyindoline]		8.11	8.77
Fc1cccc(CCN2CCC(N3CCc4ccccc43)CC2)c1 [Example 8, 1-[1-(3-fluorophenethyl)piperidin-4-yl]indoline]		7.87	7.57
COc1ccc2c(c1)N(C1CCN(CCc3ccc4ncsc4c3)CC1)CC2 [Example 233, 1-{1-[2-(6-benzothiazolyl)ethyl]-piperidin-4-yl}-6-methoxyindoline]		9.22	< 6.70
CS(=O)(=O)c1ccc(CCN2CCC(N3CCc4ccccc43)CC2)cc1 [Example 28, 1-[1-(4-methanesulfonylphenethyl)piperidin-4-yl]indoline]		7.33	8.09
CC(C)(O)c1ccc2c(c1)N(C1CCN(CCc3ccc(F)cc3)CC1)CC2 [Example 139, 1-[1-(4-fluorophenethyl)piperidin-4-yl]-6-(1-hydroxy-1-methylethyl)indoline]		8.64	8.06
O=C(c1ccc2c(c1)N(C1CCN(CCc3ccc(F)cc3)CC1)CC2)c1nccs1 [Example 194, 1-[1-(4-fluorophenethyl)piperidin-4-yl]-6-(2-thiazolylcarbonyl)indoline]		8.34	< 6.70
Fc1ccc(CCCCN2CCC(N3CCc4ccccc43)CC2)cc1 [Example 15, 1-[1-(4-fluorophenylbutyl)piperidin-4-yl]indoline]		7.54	7.54
OCCc1ccc(OCCCN2CCC(N3CCc4ccccc43)CC2)cc1 [Example 71, 1-{1-[3-(4-hydroxyethylphenoxy)propyl]piperidin-4-yl}indoline]		7.60	7.55
Clc1ccc(CCN2CCC(N3CCc4ccccc43)CC2)cc1 [Example 6, 1-[1-(4-chlorophenethyl)piperidin-4-yl]indoline]		8.35	7.76
c1ccc2c(c1)CCN2C1CCN(CCc2cnccn2)CC1 [Example 67, 1-(1-pyrazinylethylpiperidin-4-yl)indoline]		6.58	7.57
COc1ccc2c(c1)C(N1CCN(CCc3ccc(F)cc3)CC1)CCCC2 (stereo not drawn) [Example 282, 1-(4-fluorophenethyl)-4-(2-methoxybenzocycloheptan-9-yl)piperazine]		7.23	6.82
COc1ccc(CC2CN(C3CCN(CCc4ccc(F)cc4)CC3)c3ccccc32)cc1 (stereo not drawn) [Example 215, 1-[1-(4-fluorophenethyl)piperidin-4-yl]-3-(4-methoxybenzyl)indoline]		6.90	9.00
COc1ccc(CCN2CCC(C3CCc4ccccc43)CC2)cc1 (stereo not drawn) [Example 249, 1-[1-(4-methoxyphenethyl)piperidin-4-yl]indan]		8.68	7.69
COc1ccc(CCN2CCC(N3CCc4ccc(OC)cc43)CC2)cc1 [Example 228, 1-[1-(4-methoxyphenethyl)piperidin-4-yl]-6-methoxyindoline]		9.47	< 6.70
CCN1CC[C@H](N2CCc3ccccc32)[C@H](COc2ccc(F)cc2)C1 (relative stereo) [Example 84, cis-1-[1-ethyl-3-(4-fluorophenoxymethyl)piperidin-4-yl]indoline]		< 6.70	6.87
c1ccc2c(c1)CCN2C1CCN(CCc2ccncc2)CC1 [Example 49, 1-{1-[2-(4-pyridyl)ethyl]piperidin-4-yl}indoline]		7.26	7.52

Continued by rising pKi (serotonin 1A receptor), values first:

pKi (α1 adrenalin receptor)	pKi (serotonin 1A receptor)	pKi (serotonin 2 receptor)	Compound
6.92	8.69	8.54	O=C(CCO)NCc1ccc2ccn(C3CCN(CCc4ccc(F)cc4)CC3)c2c1 [Example 369, 1-[1-(4-fluorophenethyl)piperidin-4-yl]-6-(3-hydroxypropionylamino)methylindole]
	8.72	7.37	N#Cc1ccc(CCN2CCC(N3CCc4ccccc43)CC2)cc1 [Example 21, 1-[1-(4-cyanophenethyl)piperidin-4-yl]indoline]
	8.72	8.62	CS(=O)(=O)Nc1ccc2c(c1)N(C1CCN(CCc3ccc(F)cc3F)CC1)CC2 [Example 221, 1-[1-(2,4-difluorophenethyl)piperidin-4-yl]-6-methanesulfonylaminoindoline]
	8.82	8.28	Fc1ccc(CCN2CCC(N3CCc4ccc(F)nc43)CC2)cc1 [Example 261, 1-[1-(4-fluorophenethyl)piperidin-4-yl]-6-fluoro-7-azaindoline]
	8.96	8.48	Fc1ccc(CCN2CCC(N3CCc4cc5scnc5cc43)CC2)cc1 [Example 234, 1-[1-(4-fluorophenethyl)piperidin-4-yl]thiazolo[5,4-f]indoline]
	9.00	7.95	CN(c1ccc2c(c1)N(C1CCN(CCc3ccc(F)cc3)CC1)CC2)S(C)(=O)=O [Example 120]
	9.02	9.19	NC(=S)Cc1ccc2c(c1)N(C1CCN(CCc3ccc(F)cc3)CC1)CC2 [Example 129, 1-[1-(4-fluorophenethyl)piperidin-4-yl]-6-thiocarbamoylmethylindoline]
7.60	9.19	7.42	CC(O)c1ccc2ccn(C3CCN(CCc4ccc(F)cc4)CC3)c2c1 (stereo not drawn) [Example 392, 1-[1-(4-fluorophenethyl)piperidin-4-yl]-6-(1-hydroxyethyl)indole Oxalate]
	9.40	7.92	Fc1ccc(CCN2CCC(=C3CCc4cccnc43)CC2)cc1 [Example 256, 7-[1-(4-fluorophenethyl)piperidin-4-ylidene]-5,6-dihydropyrindine]
	9.66	7.04	CCN1CCN([C@@H]2c3cc(OC)ccc3CC[C@H]2Oc2ccc(C(F)(F)F)cc2)CC1 (relative stereo) [Example 279, trans-1-(4-ethylpiperazin-1-yl)-7-methoxy-2-(4-trifluoromethylphenoxy)-1,2,3,4-tetrahydronaphthalene]
	9.70	10.00	CC(=O)NCc1ccc(CCN2CCC(n3ccc4ccccc43)CC2)cc1 [Example 288, 1-[1-(4-acetamidomethylphenethyl)piperidin-4-yl]indole]
	9.89	9.92	COc1ccc(CCN2CCC(N3CCc4ccccc43)CC2)cc1 [Example 18, 1-[1-(4-methoxyphenethyl)piperidin-4-yl]indoline]
	9.92	7.28	Fc1ccc(CCN2CCC(N3CCc4ccc(-c5nccs5)cc43)CC2)cc1 [Example 172, 1-[1-(4-fluorophenethyl)piperidin-4-yl]-6-(2-thiazolyl)indoline]
